Consider 18 compounds from patent US20230226099A1, “INHALABLE FORMULATION” (AALTO UNIVERSITY FOUNDATION SR, priority 2020, published 2023).

A word on the MIC: it is the least concentration at which growth counts as inhibited.

One data set has as its system Pseudomonas aeruginosa. The data set can be described thus: Antibiotic resistance profile of strains. The data set is classed as cell-based.
In data set [1] the test system is MDR-Acinetobacter baumannii. The data set can be described thus: Antibiotic resistance profile of strain. It counts as cell-based. The following applies: strain 5542.
Data set [2] deals with Pseudomonas aeruginosa PAO1. The experiment in a line: Coadministration with antibiotics, development of resistance (MIC over days). The data set is classed as cell-based. The source says: MIC values were categorized in three groups according to the Clinical and Laboratory Standards Institute: susceptible, intermediate susceptible and resistant.
Data set [3] has as its system lipopolysaccharides of P. aeruginosa, strain PA10. The experiment in a line: Analytical ultracentrifuge sedimentation velocity analysis of interaction with LPS. It counts as binding, Pseudomonas aeruginosa. The following applies: 135 μM P[5]a and 35 μM LPS, UV absorbance at 305 nm. How it is done:
A clear initial peak of unbound P[5]a can be observer at low molecular weight (2260 Da), followed by a long and polydisperse collection of peaks, ranging from low molecular weight (S), to very high molecular weight (60.000 kDa) See Example 2.
The interaction of P[5]a with lipopolysaccharides of P. aeruginosa, strain PA10 was measured using AUC.
Analytical ultracentrifugation (AUC) is based on sedimentation of colloidal particles in a centrifugal field. During centrifugation particles move toward the bot-tom of the measuring cell. This movement leads to redistribution of particles along the measuring cell, which in turn can be expressed as a change in concentration along the measuring cell. The absorbance detector was used to follow the changes caused by centrifugation (absorbance is proportional to concentration). In simple words, in AUC the inventors measure how concentration changes during centrifugation, so they collect concentration profiles. Interaction between particles can be measured as a result of changes in the sedimentation profiles. […]
The spectra of both P[5]a and LPS from P. aeruginosa were first analysed separately (see FIGS. 11a and b). […] Because only the sedimentation of P[5]a was detected at 305 nm, the inventors were certain that any changes observed in the sedimentation profile, come from interactions between P[5]a and other particles. […]

A short description of data set [4]: Lung neutrophil infiltration and inflammation score after i.v. or i.n. administration. The data set is classed as in vivo. As to conditions: BALB/c mice, different dosages, 24 hours. The text has this: Two different administration methods were use, intravenously (i.v.) or intranasally (i.n.). Pathological changes were graded according to severity (P=Present; 1=Minimal; 2=Mild; 3=Moderate).

For data set [5], the system named is MDR resistant clinical isolates. The experiment in a line: Coadministration with antibiotics in MDR resistant clinical isolates. As to conditions: Amikacin, Cefepime, Ceftazidime and Meropenem. It counts as cell-based.

Take `NCC[C@H](O)C(=O)N[C@@H]1C[C@H](N)[C@@H](O[C@H]2O[C@H](CN)[C@@H](O)[C@H](O)[C@H]2O)[C@H](O)[C@H]1O[C@H]1O[C@H](CO)[C@@H](O)[C@H](N)[C@H]1O` [Amikacin]: the “Antibiotic resistance (category)” value in the data set on Pseudomonas aeruginosa (strain 2798 (ATCC 2798)) is recorded as “Susceptible”; in data set [1] it was “Resistant to Amikacin, Amoxicillin-clavulanate, Ampicillin,”. Moreover, the “Antibiotic resistance (value)” value in the data set on Pseudomonas aeruginosa (strain 5539) is “Susceptible to Amikacin 8 ug, intermediate to Cefepime 8 ug,”; in the data set on Pseudomonas aeruginosa (strain 5542, MDR) it was “MDR Intermediate susceptible to amikacin 16 ug, resistant to”; with Pseudomonas aeruginosa (strain 5550, MDR), “MDR Intermediate susceptible to amikacin 32 ug”; in the data set with Pseudomonas aeruginosa (strain 5834, MDR), “MDR Intermediate susceptible to amikacin 16 ug, resistant to”.
`CC1(C)S[C@@H]2[C@H](NC(=O)[C@H](N)c3ccccc3)C(=O)N2[C@H]1C(=O)O` [Ampicillin]: the “Antibiotic resistance (category)” value in data set [1] is “Resistant to Amikacin, Amoxicillin-clavulanate, Ampicillin,”.
Regarding `CC[C@H]1OC(=O)[C@H](C)[C@@H](O[C@H]2C[C@@](C)(OC)[C@@H](O)[C@H](C)O2)[C@H](C)[C@@H](O[C@@H]2O[C@H](C)C[C@H](N(C)C)[C@H]2O)[C@](C)(O)C[C@@H](C)CN(C)[C@H](C)[C@@H](O)[C@]1(C)O` [Azithromycin], the “Antibiotic resistance (category)” value in data set [1] is given as “Resistant to Amikacin, Amoxicillin-clavulanate, Ampicillin,”.
Regarding `C[C@H]1[C@H](NC(=O)/C(=N\OC(C)(C)C(=O)O)c2csc(N)n2)C(=O)N1S(=O)(=O)O` [Aztreonam], the “Antibiotic resistance (category)” value in the data set with Pseudomonas aeruginosa (strain 2798 (ATCC 2798)) is “Intermediate susceptible”.
As to `CC1=C(C(=O)O)N2C(=O)[C@@H](NC(=O)[C@H](N)c3ccccc3)[C@H]2SC1` [Cefalexin], in data set [1], the “Antibiotic resistance (category)” value is “Resistant to Amikacin, Amoxicillin-clavulanate, Ampicillin,”.
As for `CO/N=C(\C(=O)N[C@@H]1C(=O)N2C(C(=O)[O-])=C(C[N+]3(C)CCCC3)CS[C@H]12)c1csc(N)n1` [Cefepime], the MIC in data set [2] (Pseudomonas aeruginosa, 96 h, PAO1, after four days, highest concentration of antibiotic included) turned out to be 128 µg/mL.
As for `CC(C)(O/N=C(\C(=O)N[C@@H]1C(=O)N2C(C(=O)[O-])=C(C[n+]3ccccc3)CS[C@H]12)c1csc(N)n1)C(=O)O` [Ceftazidime], the “Antibiotic resistance (value)” value with Pseudomonas aeruginosa (strain 5539) was 8 µg; with Pseudomonas aeruginosa (strain 5542, MDR), 32 µg; with Pseudomonas aeruginosa (strain 5827, MDR) it was 64 µg; with Pseudomonas aeruginosa (strain 5832, MDR) it was 16 µg; in the data set with Pseudomonas aeruginosa (strain 5834, MDR), “cefepime 64 ug, ceftazidime 64 ug and meropenem 64 ug”.
Consider `C[C@@H](O)[C@H]1C(=O)N2C(C(=O)O)=C(S[C@@H]3CN[C@H](C(=O)Nc4cccc(C(=O)O)c4)C3)[C@H](C)[C@H]12` [Ertapenem], for which the “Antibiotic resistance (category)” value in data set [1] is given as “Resistant to Amikacin, Amoxicillin-clavulanate, Ampicillin,”.
Consider `C[C@@H](O)[C@H]1C(=O)N2C(C(=O)O)=C(S[C@@H]3CN[C@H](C(=O)N(C)C)C3)[C@H](C)[C@H]12` [Meropenem], for which the “Antibiotic resistance (value)” value with Pseudomonas aeruginosa (strain 5539) is 8 µg; in the data set with Pseudomonas aeruginosa (strain 5542, MDR), 8 µg; in the data set on Pseudomonas aeruginosa (strain 5827, MDR) it was 16 µg; in the data set on Pseudomonas aeruginosa (strain 5832, MDR), 8 µg; with Pseudomonas aeruginosa (strain 5834, MDR), “cefepime 64 ug, ceftazidime 64 ug and meropenem 64 ug”. Besides, the “Antibiotic resistance (category)” value in data set [1] was “Resistant to Amikacin, Amoxicillin-clavulanate, Ampicillin,”.
For `C[N+](C)(C)CCOc1cc2c(OCC[N+](C)(C)C)cc1Cc1cc(OCC[N+](C)(C)C)c(cc1OCC[N+](C)(C)C)Cc1cc(OCC[N+](C)(C)C)c(cc1OCC[N+](C)(C)C)Cc1cc(OCC[N+](C)(C)C)c(cc1OCC[N+](C)(C)C)Cc1cc(OCC[N+](C)(C)C)c(cc1OCC[N+](C)(C)C)C2.[Br-].[Br-].[Br-].[Br-].[Br-].[Br-].[Br-].[Br-].[Br-].[Br-]` [P[5]a, 4,9,14,19,24,26,28,30,32,34-Deca[2-(trimethylaminio)ethoxy]hexacyclo[21.2.2.2^3,6.2^8,11.2^13,16.2^18,21]pentatriaconta1(25),3,5,8,10, 13,15,18,20,23,26,28,30,32,34-pentadecaene 10bromide], the “penetration of coadministered antibiotics” value in data set [2] (PAO1) is “enhances the penetration”. In data set [2] (coadministration with Aztreonam, Cefepime, Meropenem and Tobramycin, PAO1), the “development of resistance by the pathogen to the coadministered antibiotic” value is on record as “greatly slowed”. For the same compound, in data set [3], the “interaction with LPS” value is on record as “strong interaction”. The “tolerability (lung neutrophil infiltration and inflammation score)” value in data set [4] is listed as “good tolerability”. Further, the “penetration and efficacy of coadministered antibiotics” value in data set [5] is “enhances the penetration and efficacy”.
Turning to `Cc1cc(NS(=O)(=O)c2ccc(N)cc2)no1` [Sulfamethoxazole], the “Antibiotic resistance (category)” value in data set [1] is “Resistant to Amikacin, Amoxicillin-clavulanate, Ampicillin,”.
Same read-out and setting: the entry for `CN(C)c1cc(NC(=O)CNC(C)(C)C)c(O)c2c1C[C@H]1C[C@H]3[C@H](N(C)C)C(O)=C(C(N)=O)C(=O)[C@@]3(O)C(O)=C1C2=O` [Tigecycline] is “Resistant to Amikacin, Amoxicillin-clavulanate, Ampicillin,”.
With `NC[C@H]1O[C@H](O[C@H]2[C@H](O)[C@@H](O[C@H]3O[C@H](CO)[C@@H](O)[C@H](N)[C@H]3O)[C@H](N)C[C@@H]2N)[C@H](N)C[C@@H]1O` [Tobramycin], the “Antibiotic resistance (category)” value in the data set on Pseudomonas aeruginosa (strain 5539) is “resistant”; in data set [1], “Resistant to Amikacin, Amoxicillin-clavulanate, Ampicillin,”.
As to `CO/N=C(\C(=O)N[C@@H]1C(=O)N2C(C(=O)O)=C(COC(N)=O)CS[C@H]12)c1ccco1` [cefurixome], the “Antibiotic resistance (category)” value in the data set on Pseudomonas aeruginosa (strain 5539) is “resistant”.
As for `O=C(O)c1cn(C2CC2)c2cc(N3CCNCC3)c(F)cc2c1=O` [ciprofloxacin], the “Antibiotic resistance (category)” value in the data set on Pseudomonas aeruginosa (strain 5539) was “resistant”; in the data set with Pseudomonas aeruginosa (strain 5832, MDR), “resistant”.
In the case of Amoxicillin-clavulanate, the “Antibiotic resistance (category)” value in data set [1] is on record as “Resistant to Amikacin, Amoxicillin-clavulanate, Ampicillin,”.
In the case of Colistin, in the data set on Pseudomonas aeruginosa (strain 2798 (ATCC 2798)), the “Antibiotic resistance (category)” value was “Susceptible”.
Take Piperacillin-tazobactam: the “Antibiotic resistance (category)” value in the data set with Pseudomonas aeruginosa (strain 5539) is given as “resistant”; in data set [1], “Resistant to Amikacin, Amoxicillin-clavulanate, Ampicillin,”.
